Patent US6680058B1, “Compositions and methods for contraception in or sterilization of mammals” (Board of Supervisors of Louisiana State University and …, priority 1997, dated 2004)
Where no end group is shown, it is not given here.

Key:
[1] = tested on: pituitary basophilic (gonadotropic) cells; experiment: Adult female rat pituitary gland sections in tissue culture, histology ten hours after treatment (Examples 1-6); format: cell-based
Experimental: The pituitary gland of an adult female rat was harvested and divided into six sections of approximately equal size. One section was placed in each of six wells containing tissue culture medium at 37° C. A different treatment was applied to each well, as described below. Ten hours after treatment, the tissue from each well was fixed, and the histology of each was examined microscopically.

[2] = tested on: sexually mature, Sprague-Dawley female rats; experiment: Sexually mature Sprague-Dawley female rats, single intravenous treatment, necropsy 48 or 96 hours after treatment, H&E and PAS stain (Examples 15-22); format: in vivo, rat; details: for appearance of the pituitary glands: 1 mg i.v.
Experimental: Eight sexually mature, Sprague-Dawley female rats were randomly assigned to one of eight treatments. Each group of rats received a single treatment intravenously, as described below. Rats were sacrificed and necropsied either 48 or 96 hours after treatment. The ovaries, uterus, pancreas, liver, spleen, lungs, heart, thyroid, and adrenal glands were fixed in 10% buffered formalin; sectioned; and stained with H&E (hematoxylin and eosin) stain; except that the pituitary glands were stained with PAS (periodic acid-Schiff) stain with no counter-stain. The treatments were selected so that each animal received an equimolar amount of the compound with which it was treated.

GnRH receptor = molecular target: T1, GnRH receptor (Rattus norvegicus, UniProt P30969); experiment: Displacement of radiolabelled monoiodinated-GnRH from rat pituitary membranes (Example 24); format: binding; details: molar basis over a 1000-fold concentration range (n=6); native GnRH = 100%
T1 construct: specifically displaced radiolabelled monoiodinated-GnRH from rat pituitary membranes; from tissue; host or cells: rat pituitary membranes
T1 sequence (P30969 1-327): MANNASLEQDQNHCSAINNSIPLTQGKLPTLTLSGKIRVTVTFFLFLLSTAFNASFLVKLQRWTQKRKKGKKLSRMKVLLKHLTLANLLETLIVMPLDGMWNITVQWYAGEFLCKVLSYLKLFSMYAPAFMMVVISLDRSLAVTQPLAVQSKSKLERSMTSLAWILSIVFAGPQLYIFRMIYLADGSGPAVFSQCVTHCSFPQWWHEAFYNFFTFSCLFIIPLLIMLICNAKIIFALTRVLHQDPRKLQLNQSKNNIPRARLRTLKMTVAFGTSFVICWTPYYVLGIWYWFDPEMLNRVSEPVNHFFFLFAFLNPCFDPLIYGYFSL
Excerpt: We also synthesized D-Lys^6GnRH (SEQ. ID NO. 13), so that hecate could be conjugated to the D-Lys^6, a position that could minimize interference with binding of the GnRH domain to the GnRH receptor. These synthetic peptides specifically displaced radiolabelled monoiodinated-GnRH from rat pituitary membranes.

[3] = tested on: sexually mature female rabbits; experiment: Sexually mature female rabbits, intravenous GnRH-hecate, GnRH challenge day 6, sacrifice day 7 (Examples 47-48); format: in vivo, rabbit
Experimental: Nine sexually mature female rabbits were injected intravenously with saline containing 0 mg (n=4) (Treatment 47) or 10 mg GnRH-hecate (n=5) (Treatment 48). Rabbits were injected intramuscularly with GnRH on day 6 post-treatment. Blood samples were collected for radioimmunoassay of LH and FSH as described above, and the animals were sacrificed on day 7 post-treatment. […] Again, the effects were more pronounced on GnRH neurons than on staining of pituitary gonadotropes.
The number of ovulation sites in rabbits in Examples 47 and 48 treated with 10 mg GnRH-hecate were reduced as compared to saline controls. The mean number of ovulation sites in four saline controls equalled 12.2±5.4, with S.E.M.=2.7. The mean number of ovulation sites in the five rabbits given 10 mg of GnRH-hecate was 3.6±1.1, with S.E.M.=0.5. This difference from control was significant (p=0.025).
The “LH surge” (the level of LH at one hour post-GnRH challenge, minus the resting level before challenge) in the four controls was 61.2±16.5 ng/mL, with S.E.M.=8.3; and in the treated group was 49.6±26.1 ng/mL, with S.E.M.=12 (p=0.22). Thus there was a trend towards lower LH levels in the treated group.

GnRH-hecate: fusion peptide of modified GnRH bonded directly to the lytic peptide hecate, SEQ. ID NO. 3 (QHWSYGLRPGFALALKALKKALKKLKKALKKAL; ends and bridges not checked; also: GnRH part modified, modification not given here)
histology of pituitary tissue after treatment ([1]; 50 μM fusion peptide, ten hours): Widespread basophilic (gonadotropic) cellular destruction | histology of pituitary tissue after treatment ([1]; initial application of fusion peptide, second application two hours later): virtually destroyed, with only stromal cells remaining | appearance of the pituitary glands ([2]; sacrificed 48 hours after injection): slightly enlarged, hyperemic, and edematous | appearance of the pituitary glands ([2]; sacrificed 96 hours after injection): slightly hyperemic, but of expected size | gross lesions in the organs ([2]; 1 mg in 100 μL saline (2.7 mM) i.v., sacrificed 48 or 96 hours after injection): No gross lesions were noted in the organs of any of the four animals, other than the pituitary | specific displacement of the radiolabelled peptide relative to equimolar concentrations of GnRH (GnRH receptor): 123%±4% | amount of LH released in response to GnRH ([3]; 10 mg i.v. (n=5), GnRH i.m. on day 6 post-treatment): lower in the treated animals than in the controls | mean number of ovulation sites ([3]; 10 mg i.v., five rabbits, S.E.M.=0.5, saline controls 12.2±5.4, p=0.025): 3.6±1.1 | LH surge (level of LH at one hour post-GnRH challenge, minus the resting level before challenge) ([3]; 10 mg i.v., S.E.M.=12, controls 61.2±16.5 ng/mL, p=0.22): 49.6 ± 26.1 ng/mL | effects on peripheral tissues ([3]; 10 mg i.v., day 7): No effects | effects on pituitary weight ([3]; 10 mg i.v., day 7): No effects | numbers of GnRH-induced ovulations ([3]; 10 mg i.v., day 7): reduced | numbers of tertiary ovarian follicles ([3]; 10 mg i.v., day 7): reduced
